PubChem BioAssay (NCI)
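Cells were grown in 96-well plates and exposed to each compound for 48 hours at five concentrations; endpoints were interpolated linearly between bracketing concentrations, or set to the highest concentration if not reached. GI50: concentration for 50% inhibition of growth. The concentration for full growth arrest is given as TGI.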

What was measured:
Experiment in all cases: NCI-60 cell line screen, 48 h
HL-60(TB) leukemia = test system: HL-60(TB) leukemia
NCI-H522 lung = test system: NCI-H522 lung
RXF 393 renal = test system: RXF 393 renal
NCI-H23 lung = test system: NCI-H23 lung
MALME-3M melanoma = test system: MALME-3M melanoma
CAKI-1 renal = test system: CAKI-1 renal
A498 renal = test system: A498 renal
HCT-116 colon = test system: HCT-116 colon
SNB-75 CNS = test system: SNB-75 CNS
SF-539 CNS = test system: SF-539 CNS

Structure (SMILES)	GI50 (HL-60(TB) leukemia) [µM]	TGI (HL-60(TB) leukemia) [µM]	GI50 (NCI-H522 lung) [µM]	TGI (NCI-H522 lung) [µM]	GI50 (RXF 393 renal) [µM]	TGI (RXF 393 renal) [µM]	GI50 (NCI-H23 lung) [µM]	TGI (NCI-H23 lung) [µM]	GI50 (MALME-3M melanoma) [µM]	TGI (MALME-3M melanoma) [µM]	GI50 (CAKI-1 renal) [µM]	TGI (CAKI-1 renal) [µM]	GI50 (A498 renal) [µM]	TGI (A498 renal) [µM]	GI50 (HCT-116 colon) [µM]	TGI (HCT-116 colon) [µM]	GI50 (SNB-75 CNS) [µM]	TGI (SNB-75 CNS) [µM]	GI50 (SF-539 CNS) [µM]	TGI (SF-539 CNS) [µM]
COC(=O)c1cc(NC(=O)CN(CCN(CC(=O)O)CC(=O)Nc2ccc(O)c(C(=O)OC)c2)CC(=O)O)ccc1O	42.2	> 100	46.4	> 100	> 100	> 100	78.9	> 100	> 100	> 100	32	> 100	71.7	> 100	43.9	> 100	55.3	> 100	29.4	> 100
CC#CC(=O)N[C@H]1CCCN(c2c(F)cc(C(N)=O)c3[nH]c(C)c(C)c23)C1	21.4	46	14.4	34.1	12.6	26.6	19.5	41.8	16.2	34.3	13.4	34.1	12	26.6	16	31.2	7.66	21.3	13.3	28.4
O=[N+]([O-])c1ccc(NN=C2c3ccccc3Cc3ccccc32)c([N+](=O)[O-])c1	–	> 30	–	7.97	–	> 100	–	> 100	–	> 100	–	> 100	–	> 100	–	> 100	–	75.1	–	> 100
O=C1C(Cl)=C(Nc2ccccn2)C(=O)c2ccccc21	2.52	5.83	1.89	3.69	10.2	21.8	2.18	7.4	1.81	3.65	3.82	18.8	12.9	25.6	1.95	4.1	2	4.49	2.07	4.75
Cc1cccc2c1NC(=O)C2(c1ccc(O)cc1)c1ccc(O)cc1	7.64	39.6	12.6	33.4	< 0.0181	0.709	0.0459	31.8	17.8	55.5	26.2	> 100	0.559	25.1	11.3	25.5	0.0601	37.5	17.7	45.8
CNc1ccc(C(=O)CC(O)CCC(C)C2OC(=O)CC(O)CC(=O)CC(O)CC(O)CC(O)CC(O)CC3(O)CC(O)C(C(=O)NCCc4ccccn4)C(CC(OC4OC(C)C(O)C(N)C4O)/C=C/C=C/C=C/C=C\C=C/C=C/C=C/C2C)O3)cc1 (stereo not drawn)	5.01	30.2	4.21	> 50	1.05	30.4	0.118	0.271	0.0398	0.144	0.165	0.633	0.136	0.464	0.741	> 50	> 50	> 50	2.73	> 50
C(=C\c1nc2ccccc2s1)/c1ccc(N2CCOCC2)s1	> 100	> 100	49.2	> 100	31.3	> 100	80.9	> 100	72	> 100	> 100	> 100	> 100	> 100	59.9	> 100	31.6	> 100	53.1	> 100
O=C(O)CP(=O)(c1ccccc1)c1ccccc1.O=C(O)CP(=O)(c1ccccc1)c1ccccc1.[Cd]	15.9	60.7	0.403	2.77	68.8	> 100	20.2	41.9	0.536	3.76	22.7	38.9	19.9	39.8	20	47.3	16	32.4	11.4	26.2
COc1cc2c3c(c1OCc1ccccc1)NCCC3NCC2 (stereo not drawn)	–	> 100	–	> 100	–	> 100	–	> 100	–	> 100	–	> 100	–	> 100	–	> 100	–	> 100	–	> 100
CCNC(=O)c1ccc2c(c1)nc(-c1ccc(Cl)cc1)n2-c1cc(C(C)(C)C)[nH]n1	2.72	7.6	2.7	9.6	1.81	5.55	2.78	20.3	3.47	17.2	2.84	46.6	2.24	6.53	3.17	12.3	2.17	12	3	11
C/C=C(\C)C(=O)OC1C2C(C)C(=O)OC2C(O)C(C)C2C=CC(=O)C21C (stereo not drawn)	–	18.4	–	12.5	–	24.5	–	27.1	–	27	–	28.4	–	53.3	–	22.6	–	43.3	–	36.4
CCCN(CCC)c1ccc(/C=N/NC(=O)c2cccnc2)cc1	22.6	63.7	16.6	46.8	19.2	42.1	36.1	> 100	41.8	> 100	30.1	> 100	10.2	22.3	23.5	> 100	22	68.1	18.8	61.4
COc1cc([N+](=O)[O-])c(OC)cc1-c1nc2n(c1/C(N)=N/C(=N)N)CCS2	> 100	> 100	47.7	> 100	42.2	> 100	23.3	87.1	18.7	60.6	–	–	> 100	> 100	20.8	> 100	6.76	> 100	26.2	> 100
